{
  "source": "patent US20120328526A1",
  "about": "“Modulation of Nad+ Activity in Neuropathophysiological Conditions and Uses Thereof” (University of Maryland, Baltimore, priority 2011, published 2012)",
  "key": {"[1]": {"target": "T1, CD38 (Mus musculus, UniProt P56528)", "T1 construct": "Addition of isolated brain mitochondria into medium containing 1-etheno-NAD (eNAD) results in generation of fluorescent product; from tissue; host or cells: isolated brain mitochondria", "T1 sequence (P56528 1-304)": "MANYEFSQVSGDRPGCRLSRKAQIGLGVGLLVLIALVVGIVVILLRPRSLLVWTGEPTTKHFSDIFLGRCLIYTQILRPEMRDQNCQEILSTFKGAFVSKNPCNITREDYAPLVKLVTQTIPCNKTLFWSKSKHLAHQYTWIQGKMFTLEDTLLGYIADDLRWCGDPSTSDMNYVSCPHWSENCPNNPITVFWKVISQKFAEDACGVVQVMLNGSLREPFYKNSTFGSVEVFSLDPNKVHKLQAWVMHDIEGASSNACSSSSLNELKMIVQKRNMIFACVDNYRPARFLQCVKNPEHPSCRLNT", "assay": "1-etheno-NAD hydrolysis by isolated brain mitochondria", "type": "biochemical", "conditions": "NMN 1 mM", "experimental": "Addition of isolated brain mitochondria into medium containing 1-etheno-NAD (eNAD) results in generation of fluorescent product. This NAD catabolism is inhibited by nicotinamide mononucleotide (1 mM). […] In brain tissue of sham-operated animals the CD38 expression is very low. […] This increase is observed particularly in non-neuronal cells that resemble post-ischemic microglia."}, "[2]": {"tested_on": "traumatic brain injury mice", "assay": "Open field test (anti-clockwise/clockwise rotations) after traumatic brain injury", "type": "in vivo, mouse", "conditions": "NMN 500 mg/kg I.P. at 1 hour post-injury; 7 days post-injury; listed as NMN", "experimental": "FIGS. 9A-9B show traumatic brain injury-induced deficits in sensorimotor function and cognition are ameliorated by nicotinamide mononucleotide treatment. FIG. 9A: Fine motor coordination deficits were quantified using a beam walk test in C57Bl/6 mice subjected to moderate-level traumatic brain injury and treated with nicotinamide mononucleotide (500 mg/kg, I.P.) or equal volume of vehicle at 1 hour post-injury. Hindlimb foot placement was recorded up to 7 days post-injury and the number of foot faults recorded from 50 steps. Naïve C57Bl/6 mice served as a control group. […] Analysis was by repeated measures one-way ANOVA, followed by post-hoc adjustments using Student-Newman-Keuls test. Mean ±S.E.M.; n=5/group. FIG. 9B: Cognitive performance was analyzed by measuring the number of anti-clockwise and clockwise rotations of traumatic brain injury mice in an open field test performed at 7 days post-injury.\nThe effect of nicotinamide mononucleotide on traumatic brain injury-induced changes in fine motor coordination examined using a beam walking task in which mice were trained to cross an elevated narrow wooden beam. The mouse was placed on the left end of the beam and the number of foot faults for the right hind limb was recorded over 50 steps on the beam. […] Their activity was measured and recorded using the Any-maze video tracking system. […]"}, "[3]": {"target": "T2, CD38 NAD^+ glycohydrolase (Mus musculus, UniProt P56528)", "T2 construct": "The individual brain regions were homogenized and centrifuged at low speed to sediment the unbroken cells and the nuclear fraction; from tissue; host or cells: mouse (C57BL/6) brain regions (cortex, striatum, hippocampal CA1, CA3-DG), low-speed supernatant of homogenate", "T2 sequence (P56528 1-304)": "T1 sequence (P56528 1-304)", "assay": "NAD+ glycohydrolase activity (1-etheno-NAD hydrolysis) in brain region homogenates", "type": "biochemical", "conditions": "NMN 1 mM; post-ischemic brain subregion supernatant", "experimental": "FIGS. 3A-3B show the effect of forebrain ischemia and nicotinamide mononucleotide administration on tissue NAD(H) levels. Mice were subjected to 10 min transient forebrain ischemia and allowed to recover for 24 h. After decapitation their brains were removed, the designated regions dissected and frozen in liquid nitrogen. One group of animals received nicotinamide mononucleotide at 1 hour of recovery. The NAD content was determined following perchloric acid extraction and utilized a coupled fluorometric cycling enzymatic assay (FIG. 3A). There is significant loss of NAD^+ in striatum, CA1, and DG regions. *p<0.05. […] Black: sham; white: ischemia; gray: NMN treatment. FIG. 3B: Effect of ischemia on CD38 activity. Brains of sham operated animals or animals subjected to 10 min of forebrain ischemia and 24 h of recovery were used for dissection of designated brain regions and homogenized. The CD38 enzyme activity was determined using 1-etheno-NAD that, when hydrolyzed by CD38, generates a fluorescent product. The rate of fluorescence increase corresponds to the CD38 enzyme activity. […]\nSince nicotinamide mononucleotide is inhibiting the CD38 NAD^+ glycohydrolase activity, the activity of CD38 in post-ischemic tissue was assessed. The NAD^+ glycohydrolase activity was measured by monitoring the enhancement in fluorescence emission caused by the hydrolysis of 1-etheno-NAD (eNAD) (9). […]"}},
  "note": "Entries after “also recorded” stand apart in the source; their conditions may differ.",
  "data": [
    {"smiles": "NC(=O)c1ccc[n+]([C@@H]2O[C@H](COP(=O)([O-])O)[C@@H](O)[C@H]2O)c1", "note": "[nicotinamide mononucleotide]", "values": [
      {"measurement": "NAD catabolism (eNAD fluorescent product) by isolated brain mitochondria", "setting": "[1]", "value": "inhibited"},
      {"measurement": "cognitive performance: anti-clockwise rotations in open field test", "setting": "[2]", "value": "virtually indistinguishable from the naïve mice; also recorded: reduced anti-clockwise rotations"},
      {"measurement": "eNAD hydrolysis (NAD+ glycohydrolase activity) in brain tissue homogenate", "setting": "[3]", "value": "completely inhibited; also recorded: prevents tissue NAD^+ degradation"}
    ]}
  ]
}
